Data: patent US11780893B2, “Kv1.3 blockers” (Zealand Pharma A/S, priority 2019, dated 2023)
Bridge positions count the residues as written; N and C are the ends. Square brackets hold non-standard residues; d marks the D form. Peptide text beside a SMILES is read from it. Nle = CCCC[C@H](N)C(=O)O

These compounds were tested against T1, human Kv1.3 voltage-gated K+ channel (Homo sapiens, UniProt P22001) (assay: cell-based). Conditions: inhibition of thallium flux, CHO-DUKX cells with human Kv1.3; read-out: IC50.
T1 construct: host or cells: CHO-DUKX
T1 sequence (P22001 whole entry): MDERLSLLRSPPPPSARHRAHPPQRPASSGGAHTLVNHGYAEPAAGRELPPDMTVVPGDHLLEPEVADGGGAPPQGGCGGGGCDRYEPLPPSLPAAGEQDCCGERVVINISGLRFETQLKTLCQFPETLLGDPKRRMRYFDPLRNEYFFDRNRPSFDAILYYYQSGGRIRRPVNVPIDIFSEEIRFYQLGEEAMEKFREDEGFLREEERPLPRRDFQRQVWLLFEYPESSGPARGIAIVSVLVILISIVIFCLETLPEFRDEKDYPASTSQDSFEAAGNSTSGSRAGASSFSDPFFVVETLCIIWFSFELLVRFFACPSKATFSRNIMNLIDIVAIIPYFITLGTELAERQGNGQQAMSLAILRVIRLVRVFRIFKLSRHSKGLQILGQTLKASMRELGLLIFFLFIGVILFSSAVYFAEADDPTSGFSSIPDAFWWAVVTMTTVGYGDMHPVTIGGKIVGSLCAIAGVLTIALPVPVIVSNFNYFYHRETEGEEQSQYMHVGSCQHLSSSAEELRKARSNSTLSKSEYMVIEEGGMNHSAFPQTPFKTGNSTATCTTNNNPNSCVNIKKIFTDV

Row | SMILES | IC50 [nM]
1 | CCCC[C@H](NC(=O)[C@H](CC(=O)O)NC(=O)[C@H](CCCC)NC(=O)[C@@H](N)CO)C(=O)N[C@@H](CCCNC(=N)N)C(=O)N[C@H]1CSSC[C@@H]2NC(=O)[C@H](CCCCN)NC(=O)CNC(=O)[C@H](Cc3ccccc3)NC(=O)[C@H]([C@@H](C)CC)NC(=O)[C@H](CO)NC(=O)CNC(=O)[C@H]([C@@H](C)CC)NC(=O)[C@H](C)NC(=O)[C@H](C)NC(=O)[C@H](CC(C)C)NC(=O)[C@@H]3CSSC[C@@H](C(=O)N[C@@H](Cc4ccc(O)cc4)C(=O)N4CCC[C@H]4C(=O)N[C@@H](CCCNC(=N)N)C(N)=O)NC(=O)[C@H](CCCCN)NC(=O)[C@H](CSSC[C@H](NC(=O)[C@H](CCC(=O)O)NC(=O)[C@H](C(C)C)NC(=O)[C@H](CO)NC(=O)[C@H](C)NC(=O)[C@H](CO)NC1=O)C(=O)N[C@@H](C)C(=O)N[C@@H](CCC(N)=O)C(=O)N[C@@H](CC(C)C)C(=O)N3)NC(=O)[C@H](CCCCN)NC(=O)[C@H](CCCCN)NC(=O)[C@H](CC(N)=O)NC(=O)[C@H](CCSC)NC2=O [Compound 81] (H-S[Nle]D[Nle]RCSASVECAQLCLAAIGSIFGKCMNKKCKCYPR-NH2; disulfide 6-27, 12-32, 16-34) | 0.22
2 | CCCC[C@H](NC(=O)[C@H](CC(=O)O)NC(=O)[C@H](CCCC)NC(=O)[C@@H](N)CO)C(=O)N[C@@H](CCCNC(=N)N)C(=O)N[C@H]1CSSC[C@@H]2NC(=O)[C@H](CCCCN)NC(=O)CNC(=O)[C@H](Cc3ccccc3)NC(=O)[C@H]([C@@H](C)CC)NC(=O)[C@H](CO)NC(=O)CNC(=O)[C@H]([C@@H](C)CC)NC(=O)[C@H](C)NC(=O)[C@H](CCCCN)NC(=O)[C@H](CC(C)C)NC(=O)[C@@H]3CSSC[C@@H](C(=O)N[C@@H](Cc4ccc(O)cc4)C(=O)N4CCC[C@H]4C(=O)N[C@@H](CCCNC(=N)N)C(N)=O)NC(=O)[C@H](CCCCN)NC(=O)[C@H](CSSC[C@H](NC(=O)[C@H](CCC(=O)O)NC(=O)[C@H](C(C)C)NC(=O)[C@H](CC(C)C)NC(=O)[C@H](C)NC(=O)[C@H](CO)NC1=O)C(=O)N[C@@H](CCCCN)C(=O)N[C@@H](CCC(N)=O)C(=O)N[C@@H](CCCCN)C(=O)N3)NC(=O)[C@H](CCCCN)NC(=O)[C@H](CCCCN)NC(=O)[C@H](CC(N)=O)NC(=O)[C@H](CCSC)NC2=O [Compound 89] (H-S[Nle]D[Nle]RCSALVECKQKCLKAIGSIFGKCMNKKCKCYPR-NH2; disulfide 6-27, 12-32, 16-34) | 2.7
3 | CCCC[C@H](NC(=O)[C@H](CC(=O)O)NC(=O)[C@H](CCCC)NC(=O)[C@@H](N)CO)C(=O)N[C@@H](CCCNC(=N)N)C(=O)N[C@H]1CSSC[C@@H]2NC(=O)[C@H](CCCCN)NC(=O)CNC(=O)[C@H](Cc3ccccc3)NC(=O)[C@H]([C@@H](C)CC)NC(=O)[C@H](CO)NC(=O)CNC(=O)[C@H]([C@@H](C)CC)NC(=O)[C@H](C)NC(=O)[C@H](CCCCN)NC(=O)[C@H](CC(C)C)NC(=O)[C@@H]3CSSC[C@@H](C(=O)N[C@@H](Cc4ccc(O)cc4)C(=O)N4CCC[C@H]4C(=O)N[C@@H](CCCNC(=N)N)C(N)=O)NC(=O)[C@H](CCCCN)NC(=O)[C@H](CSSC[C@H](NC(=O)[C@H](CCC(=O)O)NC(=O)[C@H](C(C)C)NC(=O)[C@H](C(C)C)NC(=O)[C@H](C)NC(=O)[C@H](CO)NC1=O)C(=O)N[C@@H](CCCCN)C(=O)N[C@@H](CCC(N)=O)C(=O)N[C@@H](CCCCN)C(=O)N3)NC(=O)[C@H](CCCCN)NC(=O)[C@H](CCCCN)NC(=O)[C@H](CC(N)=O)NC(=O)[C@H](CCSC)NC2=O [Compound 90] (H-S[Nle]D[Nle]RCSAVVECKQKCLKAIGSIFGKCMNKKCKCYPR-NH2; disulfide 6-27, 12-32, 16-34) | 0.19
4 | CCCC[C@@H]1NC(=O)[C@@H]2CSSC[C@H](NC(C)=O)C(=O)N[C@@H](CO)C(=O)N[C@@H](C)C(=O)N[C@@H](CO)C(=O)N[C@@H](C(C)C)C(=O)N[C@@H](CCC(=O)O)C(=O)N[C@H]3CSSC[C@H](NC(=O)[C@H](CCCCN)NC(=O)[C@H](CCCCN)NC(=O)[C@H](CC(N)=O)NC1=O)C(=O)N[C@@H](CCCCN)C(=O)N[C@H](C(=O)N[C@@H](Cc1ccc(O)cc1)C(=O)N1CCC[C@H]1C(=O)N[C@@H](CO)C(N)=O)CSSC[C@H](NC(=O)[C@H](CCCCN)NC(=O)[C@H](CCC(N)=O)NC(=O)[C@H](CCCCN)NC3=O)C(=O)N[C@@H](CC(C)C)C(=O)N[C@@H](CCCCN)C(=O)N[C@@H](C)C(=O)N[C@@H]([C@@H](C)CC)C(=O)NCC(=O)N[C@@H](CO)C(=O)N[C@@H]([C@@H](C)CC)C(=O)N[C@@H](Cc1ccccc1)C(=O)NCC(=O)N[C@@H](CCCCN)C(=O)N2 [Compound 109] (Ac-CSASVECKQKCLKAIGSIFGKC[Nle]NKKCKCYPS-NH2; disulfide 1-22, 7-27, 11-29) | 0.96
5 | CCCC[C@@H]1NC(=O)[C@@H]2CSSC[C@H](NC(C)=O)C(=O)N[C@@H](CO)C(=O)N[C@@H](C)C(=O)N[C@@H](CO)C(=O)N[C@@H](C(C)C)C(=O)N[C@@H](CCC(=O)O)C(=O)N[C@H]3CSSC[C@H](NC(=O)[C@H](CCCCN)NC(=O)[C@H](CCCCN)NC(=O)[C@H](CC(N)=O)NC1=O)C(=O)N[C@@H](CCCCN)C(=O)N[C@H](C(=O)N[C@@H](Cc1ccc(O)cc1)C(=O)N[C@@H](CO)C(N)=O)CSSC[C@H](NC(=O)[C@H](CCCCN)NC(=O)[C@H](CCC(N)=O)NC(=O)[C@H](CCCCN)NC3=O)C(=O)N[C@@H](CC(C)C)C(=O)N[C@@H](CCCCN)C(=O)N[C@@H](C)C(=O)N[C@@H]([C@@H](C)CC)C(=O)NCC(=O)N[C@@H](CO)C(=O)N[C@@H]([C@@H](C)CC)C(=O)N[C@@H](Cc1ccccc1)C(=O)NCC(=O)N[C@@H](CCCCN)C(=O)N2 [Compound 110] (Ac-CSASVECKQKCLKAIGSIFGKC[Nle]NKKCKCYS-NH2; disulfide 1-22, 7-27, 11-29) | 2.3
6 | CCCC[C@@H]1NC(=O)[C@@H]2CSSC[C@H](NC(C)=O)C(=O)N[C@@H](CO)C(=O)N[C@@H](C)C(=O)N[C@@H](CO)C(=O)N[C@@H](C(C)C)C(=O)N[C@@H](CCC(=O)O)C(=O)N[C@H]3CSSC[C@H](NC(=O)[C@H](CCCCN)NC(=O)[C@H](CCCCN)NC(=O)[C@H](CC(N)=O)NC1=O)C(=O)N[C@@H](CCCCN)C(=O)N[C@H](C(=O)N[C@@H](Cc1ccc(O)cc1)C(=O)NCC(N)=O)CSSC[C@H](NC(=O)[C@H](CCCCN)NC(=O)[C@H](CCC(N)=O)NC(=O)[C@H](CCCCN)NC3=O)C(=O)N[C@@H](CC(C)C)C(=O)N[C@@H](CCCCN)C(=O)N[C@@H](C)C(=O)N[C@@H]([C@@H](C)CC)C(=O)NCC(=O)N[C@@H](CO)C(=O)N[C@@H]([C@@H](C)CC)C(=O)N[C@@H](Cc1ccccc1)C(=O)NCC(=O)N[C@@H](CCCCN)C(=O)N2 [Compound 111] (Ac-CSASVECKQKCLKAIGSIFGKC[Nle]NKKCKCYG-NH2; disulfide 1-22, 7-27, 11-29) | 2.1
7 | CCCC[C@@H]1NC(=O)[C@@H]2CSSC[C@H](NC(C)=O)C(=O)N[C@@H](CO)C(=O)N[C@@H](C)C(=O)N[C@@H](CO)C(=O)N[C@@H](C(C)C)C(=O)N[C@@H](CCC(=O)O)C(=O)N[C@H]3CSSC[C@H](NC(=O)[C@H](CCCCN)NC(=O)[C@H](CCCCN)NC(=O)[C@H](CC(N)=O)NC1=O)C(=O)N[C@@H](CCCCN)C(=O)N[C@H](C(=O)N[C@@H](Cc1ccc(O)cc1)C(N)=O)CSSC[C@H](NC(=O)[C@H](CCCCN)NC(=O)[C@H](CCC(N)=O)NC(=O)[C@H](CCCCN)NC3=O)C(=O)N[C@@H](CC(C)C)C(=O)N[C@@H](CCCCN)C(=O)N[C@@H](C)C(=O)N[C@@H]([C@@H](C)CC)C(=O)NCC(=O)N[C@@H](CO)C(=O)N[C@@H]([C@@H](C)CC)C(=O)N[C@@H](Cc1ccccc1)C(=O)NCC(=O)N[C@@H](CCCCN)C(=O)N2 [Compound 112] (Ac-CSASVECKQKCLKAIGSIFGKC[Nle]NKKCKCY-NH2; disulfide 1-22, 7-27, 11-29) | 1.7
